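Growth conditions: 96-well plates. Treatment: test compound, 48 hours, 5 concentrations. Analysis: linear interpolation between bracketing concentrations; unreached endpoints set to highest concentration. GI50 = concentration required for 50% inhibition of growth.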 Calls of active or inactive are those of the source. Rule as the data show it: active = GI50 up to about 1.1 µM and inactive = higher.
Columns and labels:
Assay in all cases: growth of human tumour cells (NCI), 48 h
[1] = test system: 786-0
[2] = test system: A498
[3] = test system: DU-145
[4] = test system: HL-60
[5] = test system: HOP-62
[6] = test system: K562
[7] = test system: KM12
[8] = test system: MDA-MB-231
[9] = test system: MDA-MB-435
[10] = test system: OVCAR-5
[11] = test system: PC-3
[12] = test system: SK-MEL-28
[13] = test system: SK-MEL-2
[14] = test system: SN12C
[15] = test system: HCC 2998
[16] = test system: HCT-15
[17] = test system: NCI-H522
[18] = test system: OVCAR-4
[19] = test system: SK-OV-3
[20] = test system: SNB-75

SMILES | GI50 [1] | GI50 [2] | GI50 [3] | GI50 [4] | GI50 [5] | GI50 [6] | GI50 [7] | GI50 [8] | GI50 [9] | GI50 [10] | GI50 [11] | GI50 [12] | GI50 [13] | GI50 [14] | GI50 [15] | GI50 [16] [µM] | GI50 [17] | GI50 [18] | GI50 [19] | GI50 [20]
CCOC(=O)c1c(NC(=O)c2ccc(Br)cc2)sc2c1CCCC2 | > 100 µM (inactive) | 25.1 µM (inactive) | > 100 µM (inactive) | > 100 µM (inactive) | > 100 µM (inactive) | > 100 µM (inactive) | 39.1 µM (inactive) | > 100 µM (inactive) | > 100 µM (inactive) | > 100 µM (inactive) | > 100 µM (inactive) | > 100 µM (inactive) | > 100 µM (inactive) | > 100 µM (inactive) |  |  |  |  |  | 
N#Cc1c(C#N)c(SSc2c(C#N)c(C#N)c(N)n2-c2ccccc2)n(-c2ccccc2)c1N | 9.44 µM (inactive) | 20.7 µM (inactive) | 18.6 µM (inactive) |  | 28.4 µM (inactive) | 4.38 µM (inactive) | 25.4 µM (inactive) | 40.9 µM (inactive) | 14.9 µM (inactive) | 36.4 µM (inactive) | 20.9 µM (inactive) | 20.3 µM (inactive) | 21.1 µM (inactive) | 19.7 µM (inactive) | 20.9 µM (inactive) | 2.77 | 3.47 µM (inactive) | 2.25 µM (inactive) | 19.3 µM (inactive) | 31.8 µM (inactive)
CCC1(O)CC2CC(=O)OC2C1O (stereo not drawn) | > 100 µM (inactive) | > 100 µM (inactive) | > 100 µM (inactive) |  | > 100 µM (inactive) | > 100 µM (inactive) | > 100 µM (inactive) | > 100 µM (inactive) | > 100 µM (inactive) | > 100 µM (inactive) | > 100 µM (inactive) | > 100 µM (inactive) | > 100 µM (inactive) |  | > 100 µM (inactive) | > 100 | > 100 µM (inactive) | > 100 µM (inactive) | > 100 µM (inactive) | > 100 µM (inactive)
O=C1c2ccccc2-n2c1nc1ccc(Cl)cc1c2=O | 26.1 µM (inactive) | > 100 µM (inactive) | > 100 µM (inactive) |  | 30.8 µM (inactive) | 14.3 µM (inactive) | > 100 µM (inactive) | 62.1 µM (inactive) | 15.6 µM (inactive) | > 100 µM (inactive) | > 100 µM (inactive) |  | 89.9 µM (inactive) | > 100 µM (inactive) | > 100 µM (inactive) | 56.1 |  | > 100 µM (inactive) | > 100 µM (inactive) | 27.5 µM (inactive)
C/C(=C\c1ccccc1)C(=O)NCc1ccc(C(=O)NCCC(C)C)cc1 | 38.3 µM (inactive) | 27 µM (inactive) | > 100 µM (inactive) |  | 18.2 µM (inactive) | > 100 µM (inactive) | > 100 µM (inactive) | 85.3 µM (inactive) | > 100 µM (inactive) | > 100 µM (inactive) | > 100 µM (inactive) | > 100 µM (inactive) | > 100 µM (inactive) | 52.7 µM (inactive) | > 100 µM (inactive) | > 100 | > 100 µM (inactive) | > 100 µM (inactive) | 25.2 µM (inactive) | 21.9 µM (inactive)
Cc1ccc(S(=O)(=O)c2ccsc2NC(=O)C(F)(F)F)cc1 | 37.6 µM (inactive) | 53 µM (inactive) | 42.6 µM (inactive) |  | 34.7 µM (inactive) |  | 31.1 µM (inactive) | 24.5 µM (inactive) | 44.5 µM (inactive) | 50.1 µM (inactive) | 37.6 µM (inactive) | 93.5 µM (inactive) | 26.3 µM (inactive) | 25.2 µM (inactive) | 29 µM (inactive) | 34.9 | 24.4 µM (inactive) | 20.6 µM (inactive) | 36.8 µM (inactive) | 24.9 µM (inactive)
O=C(N/N=C/c1ccc(Cl)cc1)c1ccccc1Nc1ccccc1C(=O)N/N=C/c1ccc(Cl)cc1 | > 100 µM (inactive) | > 100 µM (inactive) | > 100 µM (inactive) |  | > 100 µM (inactive) | > 100 µM (inactive) | > 100 µM (inactive) | 91.6 µM (inactive) | > 100 µM (inactive) | 38.6 µM (inactive) | > 100 µM (inactive) | > 100 µM (inactive) | > 100 µM (inactive) | > 100 µM (inactive) | > 100 µM (inactive) | > 100 |  | > 100 µM (inactive) | > 100 µM (inactive) | > 100 µM (inactive)
CCOC(=O)Cn1nc2ccc(Nc3c(C)[n+]([O-])c4cc(F)c(OCC)cc4[n+]3[O-])cc2n1 | 29.8 µM (inactive) | > 100 µM (inactive) | > 100 µM (inactive) | > 100 µM (inactive) | 33 µM (inactive) | > 100 µM (inactive) | > 100 µM (inactive) | 46.8 µM (inactive) | > 100 µM (inactive) | > 100 µM (inactive) | > 100 µM (inactive) | > 100 µM (inactive) | 16.8 µM (inactive) |  |  | > 100 | > 100 µM (inactive) | > 100 µM (inactive) | 56.4 µM (inactive) | 
CC(C)(C)C1=NC(=P(c2ccccc2)(c2ccccc2)c2ccccc2)C(=O)O1 | > 100 µM (inactive) | > 100 µM (inactive) | > 100 µM (inactive) | > 100 µM (inactive) | > 100 µM (inactive) | > 100 µM (inactive) | > 100 µM (inactive) | > 100 µM (inactive) | > 100 µM (inactive) | > 100 µM (inactive) | > 100 µM (inactive) | > 100 µM (inactive) | > 100 µM (inactive) | > 100 µM (inactive) |  |  | 20.2 µM (inactive) |  | > 100 µM (inactive) | 6.21 µM (inactive)
N#CCc1nc(-c2cc3ccc(O)cc3oc2=O)cs1 | > 100 µM (inactive) |  | 83.4 µM (inactive) | 29.2 µM (inactive) | > 100 µM (inactive) | 31.5 µM (inactive) | 28.5 µM (inactive) | 95.1 µM (inactive) | 33.1 µM (inactive) | > 100 µM (inactive) | 34.3 µM (inactive) | 35.2 µM (inactive) | 27.2 µM (inactive) | 54.8 µM (inactive) | 87.1 µM (inactive) | 35.9 | > 100 µM (inactive) | 43.4 µM (inactive) | 73.6 µM (inactive) | 57 µM (inactive)
N#Cc1nc(CSCc2ccccc2)oc1N | > 100 µM (inactive) | > 100 µM (inactive) | > 100 µM (inactive) |  | > 100 µM (inactive) |  | > 100 µM (inactive) | > 100 µM (inactive) | > 100 µM (inactive) | > 100 µM (inactive) | > 100 µM (inactive) | > 100 µM (inactive) | > 100 µM (inactive) | > 100 µM (inactive) | > 100 µM (inactive) | > 100 | 42.6 µM (inactive) | > 100 µM (inactive) | > 100 µM (inactive) | 
Cc1c2c(cc3c1C(=O)C(O)=C([C@@H](C)CO)C3=O)C(C)(C)CCC2 | 32.3 µM (inactive) | 25.6 µM (inactive) | 30.5 µM (inactive) |  | 22.4 µM (inactive) | 38.7 µM (inactive) | 14.3 µM (inactive) | 23.4 µM (inactive) | 26.9 µM (inactive) | 36.9 µM (inactive) | 19.1 µM (inactive) | 28 µM (inactive) | 17.1 µM (inactive) | 27.7 µM (inactive) |  | 29.4 | 21.3 µM (inactive) | 31.3 µM (inactive) | 32.7 µM (inactive) | 21.6 µM (inactive)
CC(=C/C=C/C=C(C)\C=C\C=C(\C)C(=O)O)/C=C/C=C(/C)C(=O)O | > 100 µM (inactive) | > 100 µM (inactive) | > 100 µM (inactive) | 25.5 µM (inactive) | > 100 µM (inactive) | > 100 µM (inactive) | > 100 µM (inactive) | > 100 µM (inactive) | > 100 µM (inactive) | > 100 µM (inactive) | > 100 µM (inactive) | > 100 µM (inactive) | > 100 µM (inactive) | > 100 µM (inactive) |  | > 100 | > 100 µM (inactive) | > 100 µM (inactive) | > 100 µM (inactive) | > 100 µM (inactive)
N#CC(Cc1ccccc1)N(CCC1=CCCCC1)Cc1ccccc1 (stereo not drawn) | > 100 µM (inactive) | > 100 µM (inactive) | > 100 µM (inactive) |  | > 100 µM (inactive) | 54.1 µM (inactive) | 43.1 µM (inactive) | > 100 µM (inactive) | 22 µM (inactive) | 97.7 µM (inactive) | 51.1 µM (inactive) | 68.4 µM (inactive) | 57.8 µM (inactive) |  | 28.4 µM (inactive) | 42.9 | 25.3 µM (inactive) | 83.9 µM (inactive) | > 100 µM (inactive) | 61 µM (inactive)
CCOC(OCC)[C@H](N)[C@@H](O)[C@@H](O)[C@H]1COC(C)(C)O1 | > 100 µM (inactive) | > 100 µM (inactive) | > 100 µM (inactive) |  | > 100 µM (inactive) | > 100 µM (inactive) | > 100 µM (inactive) | > 100 µM (inactive) | > 100 µM (inactive) | > 100 µM (inactive) | > 100 µM (inactive) | > 100 µM (inactive) | > 100 µM (inactive) | > 100 µM (inactive) |  | > 100 |  | > 100 µM (inactive) | > 100 µM (inactive) | > 100 µM (inactive)
COc1nc(N(C)C)nc2c1[n+](C)cn2C [HETEROMINE A] | 48.3 µM (inactive) | > 100 µM (inactive) | > 100 µM (inactive) | 36.6 µM (inactive) | > 100 µM (inactive) | 18.6 µM (inactive) | 27.7 µM (inactive) | > 100 µM (inactive) | 74.8 µM (inactive) | > 100 µM (inactive) | > 100 µM (inactive) | 88.9 µM (inactive) | 32.2 µM (inactive) | 72.8 µM (inactive) |  | > 100 | 17.1 µM (inactive) |  | > 100 µM (inactive) | > 100 µM (inactive)

Reference: ChEMBL document CHEMBL1201862, “PubChem BioAssay data set” (2004)
